Measured values from patent US20160024249A1, “Temperature-Responsive Polymer Compositions and Methods of Use” (Vanderbilt University, priority 2014, published 2016).
No end group written: not given here.

Legend:
[1] = test system: mouse model of hind limb ischemia; test: Histological analysis of inflammation (H&E, F4/80 macrophage infiltration); assay type: in vivo, A/J mice; settings: multiple 1 mL microgel injections
Description: Mouse model of hind limb ischemia: Wild type A/J mice were used to develop a model of PAD as described previously, by ligating the femoral artery and vein at one ligation below the epigastric artery and a second ligation around the artery and vein at a distal location just proximal to the deep femoral branch. The femoral artery and vein were then cut between these two sutures. […] In order to control the hydrogel size considering the possibility that the hydrogel size may change peptide release and therefore inflammatory responses a single, 10 mL bulk injection or ten, 1 mL injections of peptide-loaded polymer were made into the thigh muscle adjacent to the femoral artery ligations. The surgical incision was then closed with non-degradable sutures. […]
Histological analysis of angiogenesis and inflammation: After sacrificing mice, ischemic muscle samples were prepared for histological analysis as described elsewhere. […] Immunohistochemical (IHC) staining to identify activated inflammatory cells by F4/80 expression was quantified by normalizing the total F4/80 positive area (indicated by brown staining) to the total cell number (determined by hema-toxylin nuclear staining) using Image J.

[2] = test system: mouse model of hind limb ischemia; test: Fluorescence microangiography (vessel perfusion capacity); assay type: in vivo, A/J mice
Description: (§1) Mouse model of hind limb ischemia: Wild type A/J mice were used to develop a model of PAD as described previously, by ligating the femoral artery and vein at one ligation below the epigastric artery and a second ligation around the artery and vein at a distal location just proximal to the deep femoral branch. The femoral artery and vein were then cut between these two sutures. A 13% by weight solution of injectable polymers in H2O 2O was mixed with 75 mg Ac-SDKP, C16, or the combination of Ac-SDKP and C16 at 25° C. In order to control the hydrogel size considering the possibility that the hydrogel size may change peptide release and therefore inflammatory responses a single, 10 mL bulk injection or ten, 1 mL injections of peptide-loaded polymer were made into the thigh muscle adjacent to the femoral artery ligations. The surgical incision was then closed with non-degradable sutures. As controls, femoral artery ligation surgery was performed on animals without any microgels or peptide treatment or with peptide in PBS injections into the subcutaneous tissue adjacent to femoral artery ligations. The left hind limb (unoperated) was also used as a surgical control.
Angiogenesis and phagocytosis assays: Fourteen days after femoral artery ligation, mice were sacrificed and tissue and microgels were harvested for analysis. Immediately before sacrificing the mice, functional fluorescence micro-angiography was performed to visualize angiogenesis in and around peptide-loaded microgels, as described previously. As a result of fluorescence microangiography, only the functional capillaries with a perfusion capacity, including those around injected micro-gels, show red fluorescence in the mouse body. Excised tissue from the site of microgel injections was imaged using an Olympus FV100 confocal microscope. For quantification of vessel perfusion capacity, the red fluorescence intensity was quantified using Image J software (n=6 images per mouse, n=6 mice per treatment).

[3] = test system: mouse aortic endothelial cells (mAECs); test: MMP-9 activity by zymography; assay type: cell-based; settings: 72 h, peptides 75 mg/mL, MMP-9 inhibitors 5 mM, TNF-a antibodies 5 mg/mL
Description: (§2) Cell Culture: RAW 264.7 macrophages (ATCC) were cultured in DMEM (Gibco) supplemented with 10% FBS and 1% penicillin/strepto-mycin. Mouse aortic endothelial cells (mAECs) were a generous gift from Dr. Ambra Pozzi at Vanderbilt University Medical Center. mAECs were cultured in EGM-2 Basal Media supplemented with BulletKit (Lonza, Allendale, N.J.) and 10 units/mLIFN-g (Sigma). RAW 264.7 mouse macrophage cells (Sigma) were cultured in DMEM with 10% FBS and 1% penicillin/streptomycin. For cell culture studies with peptides, 75 mg/mL of Ac-SDKP or C16 peptides was used. For inhibition studies, 5 mM of MMP-9 inhibitor-1 (CTK8G1150; AG-L-66085, Santa Cruz Biotechnology, Dallas, Tex.) or 5 mg/mL of LEAF Purified Mouse TNF-a antibody (BioLegend) was used.
MMP-9 activity: After 72 h culture in serum-free media, culture media from mAECs or RAW 264.7 cells (3×10^5 cells/mL, with/without peptides or TNF-a/MMP-9 inhibitors) was collected, concentrated, and analyzed by zymography, as described previously. Concentrated protein samples were incubated with non-reducing buffer at a ratio of 1:1. […] total protein per lane were loaded onto a 7.5% polyacrylamide gel containing 0.1%(w/v) gelatin (Sigma). Gels were washed in dH2O containing 3.3% (v/v) Triton X-100, followed by […] incubation in reaction buffer at 37 C. After incubation, gels were placed in fixative (30% methanol, 10% acetic acid, and 60% dH2O) for 1 h before staining with 4 parts Coomassie brilliant blue R-250 (Sigma) and 1 part methanol for 12 h. Gels were destained in 25% methanol for 1 h. The gelatinolytic activity of pro-MMP-9 was determined by densitometry of the 97 KDa white band on a blue background using Image J(n=4 per treatment). MMP-9 expression was then normalized to the expression from the no inhibitor, no peptide treated group.

[4] = test system: mouse aortic endothelial cells (mAECs); test: Tubulogenesis on growth factor reduced Matrigel; assay type: cell-based; settings: mAECs on Matrigel for 6 h
Description: as §2
Tubulogenesis: mAECs (3×10^5 cells/mL) were cultured on growth factor reduced Matrigel ([…], BD Biosciences) for 6 h before imaging for tube formation using a Nikon Eclipse Ti microscope (n=4 per treatment).

[5] = test system: mouse model of hind limb ischemia; test: Laser Doppler perfusion imaging (LDPI) of perfusion recovery; assay type: in vivo, A/J mice; settings: peptide-loaded microgels, 14 day time course
Description: as §1, with “As controls, femoral artery ligation surgery was performed on animals without any microgels or peptide treatment or with peptide in PBS injections into the subcutaneous tissue adjacent to femoral artery ligations. The left hind limb (unoperated) was also used as a surgical control.” left out
LDPI: LDPI was performed on the footpad region of the hind limb of the mice using a Periscan PIM II device. […] The perfusion ratio was calculated by normalizing the average perfusion value of the ischemic footpad (right) to the average perfusion value of the control, un-operated footpad (left) using Image J (NIH).

[6] = test system: mouse model of hind limb ischemia; test: Optical coherence tomography (Doppler and speckle-variance OCT) of blood vessels; assay type: in vivo, A/J mice; settings: for vessel morphology (speckle-variance OCT volume scans of calf muscle): injectable microgels
Description: as §1
Optical coherence tomography: Doppler OCT and speckle-variance OCT were used to non-invasively image blood vessels in the ischemic gastrocnemius muscle of mice on days 1 and 13 after femoral artery ligation, as previously described. […] Doppler OCT cross-sectional scans (B-scans) were used to quantify blood flow changes over time in the hind limb, while volume intensity projections from speckle-variance OCT image volumes (C-scans) presented vessel morphology differences between groups. […] Six Doppler OCT B-scans (4 mm, 800 A-scans, Doppler number of 9) were performed per mouse at each time point and perfusion was quantified by calculating the ratio of the number of blood vessel pixels per scan over the total imaged area per scan (n=6 mice per time point).

[7] = test system: mouse aortic endothelial cells (mAECs); test: Gene expression by quantitative RT-PCR; assay type: cell-based; settings: 75 mg/mL peptide, 72 h
Description: as §2
Gene expression: mAECs or RAW 264.7 cells were seeded at a density of 3×10^5 cells/mL on TCPS with 75 mg/mL of Ac-SDKP, C16, or the combination of C16 and Ac-SDKP peptides. After 3 days, RNA was extracted from […] using Trizol reagent and RNA easy columns. After dissolving RNA in RNase-free water, the concentration and purity of isolated RNA was measured using TECAN plate reader Nanoquant (company info). At least […] of RNA was reverse transcribed using iScriptReverse transcription Supermix for RT-qPCR on a BioRad thermocycler (company info). 50 ng/well cDNA was then amplified using SYBR green Supermix and fluorescence signal was measured on a BioRAD real time PCR machine. TGF-b1 forward: […], reverse: […]. NF-kb forward: […]-CACAGA, reverse: […]. TIMP1 forward: […], reverse: […]-CACA. FGF-1 forward: […], reverse: […]. FGF-2: MMP-9: […]-CAATCC, reverse: […]. MMP-2 forward: […], reverse: […]. TNF-a: forward: […], reverse: AGA-[…]. VEGF forward: […]-CACCA, reverse: […]. GAPDH forward: […], reverse: […]. TIMP-2 forward: […], reverse: CACGCG-[…]. Expression was calculated using the […] and normalized to GAPDH expression (n=8).

[8] = test system: RAW 264.7 macrophages; test: MMP-9 activity by zymography; assay type: cell-based, mouse; settings: RAW 264.7, 72 h, regardless of TNF-a inhibition
Description: as §2
MMP-9 activity: After 72 h culture in serum-free media, culture media from mAECs or RAW 264.7 cells (3×10^5 cells/mL, with/without peptides or TNF-a/MMP-9 inhibitors) was collected, concentrated, and analyzed by zymography, as described previously. Concentrated protein samples were incubated with non-reducing buffer at a ratio of 1:1. […] total protein per lane were loaded onto a 7.5% polyacrylamide gel containing 0.1%(w/v) gelatin (Sigma). […] The gelatinolytic activity of pro-MMP-9 was determined by densitometry of the 97 KDa white band on a blue background using Image J(n=4 per treatment). […]

[9] = test system: RAW 264.7 macrophages; test: Gene expression by quantitative RT-PCR; assay type: cell-based, mouse; settings: 75 mg/mL peptide, 72 h
Description: as §2
Gene expression: mAECs or RAW 264.7 cells were seeded at a density of 3×10^5 cells/mL on TCPS with 75 mg/mL of Ac-SDKP, C16, or the combination of C16 and Ac-SDKP peptides. After 3 days, RNA was extracted from […] using Trizol reagent and RNA easy columns. After dissolving RNA in RNase-free water, the concentration and purity of isolated RNA was measured using TECAN plate reader Nanoquant (company info). […] 50 ng/well cDNA was then amplified using SYBR green Supermix and fluorescence signal was measured on a BioRAD real time PCR machine. […] Expression was calculated using the […] and normalized to GAPDH expression (n=8).

[10] = test system: mouse model of hind limb ischemia; test: Vybrant phagocytosis assay in harvested microgels and surrounding tissue; assay type: in vivo, A/J mice; settings: peptide-loaded microgels, day 14
Description: Mouse model of hind limb ischemia: Wild type A/J mice were used to develop a model of PAD as described previously, by ligating the femoral artery and vein at one ligation below the epigastric artery and a second ligation around the artery and vein at a distal location just proximal to the deep femoral branch. The femoral artery and vein were then cut between these two sutures. […] In order to control the hydrogel size considering the possibility that the hydrogel size may change peptide release and therefore inflammatory responses a single, 10 mL bulk injection or ten, 1 mL injections of peptide-loaded polymer were made into the thigh muscle adjacent to the femoral artery ligations. The surgical incision was then closed with non-degradable sutures. As controls, femoral artery ligation surgery was performed on animals without any microgels or peptide treatment or with peptide in PBS injections into the subcutaneous tissue adjacent to femoral artery ligations. […]
A phagocytosis assay was performed in harvested microgels using Vybrant Phagocytosis Assay kit according to the manufacturer's protocol. Green fluorescence from internalized Escherichia coli particles in excised microgels and surrounding tissue was visualized through confocal imaging. The intensity of green fluorescence in each image was quantified using Image J (n=6 images per mouse, n=6 mice per treatment).

[11] = test system: RAW 264.7 macrophages; test: TNF-a ELISA of cell culture supernatant; assay type: cell-based, mouse; settings: RAW 264.7, 72 h, peptides 75 mg/mL, TNF-a antibodies 5 mg/mL
Description: as §2
ELISA: To verify TNF-a inhibition with antibodies, an ELISA was performed using Mouse TNF-a ELISA MAXTM Deluxe (Biolegend) according to the supplier's protocol. Secreted TNF-a in RAW 264.7 cell culture supernatant was measured by reading absorbance at 450 nm using a TECAN M1000 plate reader and quantified against a standard curve (n=4 per treatment).

[12] = test system: iPSC-CMs
Description: The encapsulation study was performed by mixing cells with polymer solution and gelled at 37° C. After two weeks, live cells were stained by calcein AM (green fluorescence) (g).

KAFDITYVRLKF [C16, pro-angiogenic peptide]
macrophage infiltration, increase compared to no peptide treatment ([1]; day 14): two fold
angiogenesis compared to PBS alone ([2]; PBS injections of peptide, no microgel): Slightly increased angiogenesis
angiogenesis / perfusion capacity increase vs. microgels without peptides ([2]; microgel-mediated delivery, day 14): ~1.5 fold
MMP-9 activity in endothelial cells (zymography) [3]: augmented MMP-9 activity and tubulogenesis
tubulogenesis (tube formation) [4]: augmented MMP-9 activity and tubulogenesis
higher perfusion compared to microgels without peptides (LDPI) ([5]; ischemic/control foot ratio): 29%
increase in the total area of vessels (Doppler OCT) compared to Ac-SDKP or no treatment ([6]; implantable scaffolds, day 1 to day 13): greater than two fold
vessel morphology (speckle-variance OCT volume scans of calf muscle) [6]: many vessels with a high degree of branching
TIMP-1 expression [7]: decreased TIMP-1 expression significantly
TNF-a expression in comparison to no peptide treatment [7]: increased TNF-a expression
MMP-9 activity compared to macrophages without peptide treatment [8]: significantly higher levels of MMP-9 activity
TNF-a expression in comparison to no peptide treatment [9]: increased TNF-a expression
phagocytic activity in tissue around microgels [10]: higher phagocytic activity than no peptide controls

N-acetyl-Ser-Asp-Lys-Pro (Ac-SDKP) [anti-inflammatory peptide]
inflammatory / macrophage infiltration in muscle tissue ([1]; day 14, vs no peptide): further decreased inflammatory infiltration
angiogenesis in comparison to microgels without peptide loading ([2]; peptide-loaded microgels, day 14): reduced both responses
MMP-9 activity in endothelial cells (zymography) [3]: diminished
tubulogenesis (tube formation) [4]: diminished
secreted TNF-a (ELISA) [11]: secreted the least amounts of TNF-a
perfusion recovery (LDPI) [5]: did not increase perfusion
vessel morphology (speckle-variance OCT volume scans of calf muscle) [6]: few blood vessels with limited branching
TNF-a expression in comparison to no peptide treatment [7]: decreased TNF-a expression
MMP-9 expression, decrease compared to no peptide treatment ([7]; normalized to GAPDH): over 50%
TNF-a expression in comparison to no peptide treatment [9]: decreased TNF-a expression
phagocytic activity in tissue around microgels [10]: reduced both responses

polyethylene glycol-co-poly-8-caprolactone [PEG-PCL]
viability of encapsulated iPSC-CMs (calcein AM) [12]: maintained their viability

CCN(CC)Cc1cc(C)c(N(Cc2ccccc2)S(=O)(=O)c2ccc(OC)cc2)c(C(=O)NO)c1 [MMP-9 inhibitor, reference compound]
MMP-9 activity in endothelial cells (zymography) [3]: attenuation of MMP-9 activity
tubulogenesis (tube formation) [4]: significantly reduced
